Assay results from PubChem BioAssay AID330 (DTP/NCI, 2004).
Values joined by “and” are separate entries in the source; they are usually repeats but may differ in a detail not shown here. Identical values can stand only once. Inconclusive results and toxic doses are left out. Rule for the calls: active = survival T/C of 150% or more; inactive = T/C below 125% in these data.

Test system: P388 leukemia ip, CD2F1 mice, survival T/C
Assay: NCI In Vivo Anticancer Drug Screen. Data for tumor model P388 Leukemia (intraperitoneal) in CD2F1 (CDF1) mice
Conditions: endpoint: median survival time, higher = longer survival
Outline: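 Mice carrying the transplanted tumor received test compound or vehicle. Survival was recorded in each group, and the value is the treated-group measurement divided by that of the vehicle-treated control group.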

[1] = dose: 120.0 mg/kg/injection, schedule: Q01DX005 (ip), vehicle: Klucel (hydroxypropylcellulose) (HPC)
[2] = dose: 240.0 mg/kg/injection, schedule: Q01DX005 (ip), vehicle: Klucel (hydroxypropylcellulose) (HPC)
[3] = dose: 50.0 mg/kg/injection, schedule: Q01DX005 (ip), vehicle: Klucel (hydroxypropylcellulose) (HPC)
[4] = dose: 100.0 mg/kg/injection, schedule: Q01DX005 (ip), vehicle: Klucel (hydroxypropylcellulose) (HPC)
[5] = dose: 200.0 mg/kg/injection, schedule: Q01DX005 (ip), vehicle: Klucel (hydroxypropylcellulose) (HPC)
[6] = dose: 50.0 mg/kg/injection, schedule: Q01DX009 (ip), vehicle: saline with Tween-80
[7] = dose: 100.0 mg/kg/injection, schedule: Q01DX009 (ip), vehicle: saline with Tween-80
[8] = dose: 200.0 mg/kg/injection, schedule: Q01DX009 (ip), vehicle: saline with Tween-80
[9] = dose: 25.0 mg/kg/injection, schedule: Q01DX009 (ip), vehicle: saline
[10] = dose: 50.0 mg/kg/injection, schedule: Q01DX009 (ip), vehicle: saline
[11] = dose: 100.0 mg/kg/injection, schedule: Q01DX009 (ip), vehicle: saline

Measured: T/C

C[C@H]1O[C@H](C)[C@H](O)C2=C1C(=O)c1ccccc1C2=O
inactive: dose: 12.5 mg/kg/injection, schedule: Q04DX002 (ip), vehicle: saline with Tween-80 100 % of control and 95 % of control | dose: 25.0 mg/kg/injection, schedule: Q04DX002 (ip), vehicle: saline with Tween-80 99 % of control and 100 % of control and 96 % of control | dose: 50.0 mg/kg/injection, schedule: Q04DX002 (ip), vehicle: saline with Tween-80 99 % of control and 110 % of control and 94 % of control

CC1CC[N-]C(N)N1.CC1CC[N-]C(N)N1.[Cl][Pd][Cl] (stereo unspecified)
inactive: dose: 60.0 mg/kg/injection, schedule: Q01DX005 (ip), vehicle: Klucel (hydroxypropylcellulose) (HPC) 97 % of control | [1] 97 % of control | [2] 90 % of control

CP1(=S)C=C(NC2CCCCC2)CC1 (stereo unspecified)
inactive: dose: 12.5 mg/kg/injection, schedule: Q01DX009 (ip), vehicle: Klucel (hydroxypropylcellulose) (HPC) 99 % of control | dose: 25.0 mg/kg/injection, schedule: Q01DX009 (ip), vehicle: Klucel (hydroxypropylcellulose) (HPC) 107 % of control | dose: 50.0 mg/kg/injection, schedule: Q01DX009 (ip), vehicle: Klucel (hydroxypropylcellulose) (HPC) 110 % of control | dose: 100.0 mg/kg/injection, schedule: Q01DX009 (ip), vehicle: Klucel (hydroxypropylcellulose) (HPC) 92 % of control | dose: 200.0 mg/kg/injection, schedule: Q01DX009 (ip), vehicle: Klucel (hydroxypropylcellulose) (HPC) 95 % of control

O=c1c2ccccc2c(=O)c2c1ccc1[nH]c3ccccc3n(-c3ccccc3)c12
inactive: [3] 101 % of control | [4] 100 % of control | [5] 100 % of control

O/N=C1/CN(CCN2CC(NO)=N/C(=N\O)C2)CC(NO)=N1
inactive: [3] 90 % of control | [4] 89 % of control | [5] 89 % of control

COC1C/C(=N\OC(C)=O)C2OC(c3ccccc3)OCC2O1 (stereo unspecified)
inactive: [6] 93 % of control | [7] 96 % of control | [8] 95 % of control

Cc1ncc(CO)n1C
inactive: [6] 104 % of control | [7] 101 % of control | [8] 101 % of control | dose: 400.0 mg/kg/injection, schedule: Q01DX009 (ip), vehicle: saline with Tween-80 113 % of control

CCC1(CC)C(=O)N(C(C)=O)C2(C)C(=O)NC(=O)N2C1=O (stereo unspecified)
inactive: dose: 100.0 mg/kg/injection, schedule: Q01DX001 (ip), vehicle: saline 100 % of control | dose: 200.0 mg/kg/injection, schedule: Q01DX001 (ip), vehicle: saline 100 % of control | dose: 400.0 mg/kg/injection, schedule: Q01DX001 (ip), vehicle: saline 101 % of control

COC(=O)c1c(C)cc(OC)c(C/C=C(\C)CCCc2coc(C=C(C)C)c2)c1OC
inactive: dose: 4.5 mg/kg/injection, schedule: Q01DX005 (ip), vehicle: Klucel (hydroxypropylcellulose) (HPC) 106 % of control | dose: 9.0 mg/kg/injection, schedule: Q01DX005 (ip), vehicle: Klucel (hydroxypropylcellulose) (HPC) 100 % of control | dose: 18.0 mg/kg/injection, schedule: Q01DX005 (ip), vehicle: Klucel (hydroxypropylcellulose) (HPC) 99 % of control | dose: 36.0 mg/kg/injection, schedule: Q01DX005 (ip), vehicle: Klucel (hydroxypropylcellulose) (HPC) 98 % of control | [3] 97 % of control | dose: 72.0 mg/kg/injection, schedule: Q01DX005 (ip), vehicle: Klucel (hydroxypropylcellulose) (HPC) 104 % of control | [4] 98 % of control | [5] 99 % of control

CC(=O)Nc1nnc(-c2cc(=O)c3cc(C)ccc3o2)s1
inactive: dose: 50.0 mg/kg/injection, schedule: Q01DX005 (ip), vehicle: saline with Tween-80 92 % of control | dose: 100.0 mg/kg/injection, schedule: Q01DX005 (ip), vehicle: saline with Tween-80 91 % of control | dose: 200.0 mg/kg/injection, schedule: Q01DX005 (ip), vehicle: saline with Tween-80 90 % of control

CC(=N\O)/C(=N/O)c1ccccc1
inactive: dose: 50.0 mg/kg/injection, schedule: Q04DX003 (ip), vehicle: saline with Tween-80 106 % of control | dose: 100.0 mg/kg/injection, schedule: Q04DX003 (ip), vehicle: saline with Tween-80 98 % of control | dose: 200.0 mg/kg/injection, schedule: Q04DX003 (ip), vehicle: saline with Tween-80 98 % of control | dose: 400.0 mg/kg/injection, schedule: Q04DX003 (ip), vehicle: saline with Tween-80 104 % of control

COc1ccc(C2COc3cc(OC(C)=O)c(OC(C)=O)cc3C2)cc1 (stereo unspecified)
inactive: dose: 60.0 mg/kg/injection, schedule: Q01DX005 (ip), vehicle: saline with Tween-80 103 % of control | dose: 120.0 mg/kg/injection, schedule: Q01DX005 (ip), vehicle: saline with Tween-80 103 % of control | dose: 240.0 mg/kg/injection, schedule: Q01DX005 (ip), vehicle: saline with Tween-80 103 % of control

COC(=O)/C=C\C(C)=C/C(=O)OC
inactive: [3] 100 % of control | [4] 99 % of control | [5] 99 % of control

Clc1ccc(N=Cc2ccc(C=Nc3ccc(Cl)cc3Cl)cc2)c(Cl)c1
inactive: dose: 12.5 mg/kg/injection, schedule: Q01DX009 (ip), vehicle: saline 94 % of control | [9] 94 % of control | [10] 100 % of control and 105 % of control | [11] 88 % of control | dose: 200.0 mg/kg/injection, schedule: Q01DX009 (ip), vehicle: saline 92 % of control

[B-][N+]12CC[N+]([B-])(CC1)CC2
inactive: dose: 0.06 mg/kg/injection, schedule: Q04DX003 (ip), vehicle: other 100 % of control | dose: 0.13 mg/kg/injection, schedule: Q04DX003 (ip), vehicle: other 100 % of control | dose: 0.25 mg/kg/injection, schedule: Q04DX003 (ip), vehicle: other 100 % of control | dose: 15.6 micrograms/kg/injection, schedule: Q01DX009 (ip), vehicle: other 100 % of control | dose: 31.3 micrograms/kg/injection, schedule: Q01DX009 (ip), vehicle: other 100 % of control | dose: 62.5 micrograms/kg/injection, schedule: Q01DX009 (ip), vehicle: other 100 % of control | dose: 62.5 micrograms/kg/injection, schedule: Q01DX009 (ip), vehicle: saline 87 % of control | dose: 125.0 micrograms/kg/injection, schedule: Q01DX009 (ip), vehicle: saline 104 % of control

C/C(=N/N=C(N)N)c1cn(C(=N)N)nc1C
inactive: dose: 7.5 mg/kg/injection, schedule: Q01DX005 (ip), vehicle: saline 100 % of control and 101 % of control | dose: 15.0 mg/kg/injection, schedule: Q01DX005 (ip), vehicle: saline 109 % of control and 95 % of control | dose: 30.0 mg/kg/injection, schedule: Q01DX005 (ip), vehicle: saline 101 % of control and 95 % of control | dose: 60.0 mg/kg/injection, schedule: Q01DX005 (ip), vehicle: saline 101 % of control and 107 % of control | [1] 99 % of control | [2] 117 % of control

COC(=O)CCCCc1ccc(CCCC(=O)OC)c2ccccc12
inactive: dose: 50.0 mg/kg/injection, schedule: Q01DX009 (ip), vehicle: other 102 % of control | dose: 100.0 mg/kg/injection, schedule: Q01DX009 (ip), vehicle: other 102 % of control | dose: 200.0 mg/kg/injection, schedule: Q01DX009 (ip), vehicle: other 105 % of control

O=C1NNC(c2ccccc2)=Nc2ccccc21
inactive: dose: 100.0 mg/kg/injection, schedule: Q04DX002 (ip), vehicle: saline with Tween-80 96 % of control | dose: 200.0 mg/kg/injection, schedule: Q04DX002 (ip), vehicle: saline with Tween-80 96 % of control | dose: 400.0 mg/kg/injection, schedule: Q04DX002 (ip), vehicle: saline with Tween-80 94 % of control

N=C(N)COCc1ccccc1
inactive: [9] 116 % of control | [10] 120 % of control | [11] 111 % of control

CC(C)=CCC1=CC(=O)C(CC=C(C)C)=CC1=O
inactive: dose: 3.12 mg/kg/injection, schedule: Q01DX009 (ip), vehicle: saline with Tween-80 105 % of control | dose: 6.25 mg/kg/injection, schedule: Q01DX009 (ip), vehicle: saline with Tween-80 118 % of control | dose: 12.5 mg/kg/injection, schedule: Q01DX009 (ip), vehicle: saline with Tween-80 100 % of control | dose: 25.0 mg/kg/injection, schedule: Q01DX009 (ip), vehicle: saline with Tween-80 90 % of control and 96 % of control

COc1ccc(OC)c2c1CCC1(C2)NC(=O)NC1=O (stereo unspecified)
inactive: [3] 111 % of control | [4] 100 % of control | [5] 95 % of control

COc1cc([C@@H]2c3cc4c(cc3[C@H](OC(=O)CCC(=O)O)[C@H]3COC(=O)[C@H]23)OCO4)cc(OC)c1OC
inactive: dose: 6.25 mg/kg/injection, schedule: Q01DX005 (ip), vehicle: saline with Tween-80 106 % of control | dose: 12.5 mg/kg/injection, schedule: Q01DX005 (ip), vehicle: saline with Tween-80 122 % of control | dose: 25.0 mg/kg/injection, schedule: Q01DX005 (ip), vehicle: saline with Tween-80 113 % of control
